The text below walks through data of patent publication US5386030A, “Antiviral (phosphonomethoxy)methoxy purine/pyrimidine derivatives” (Institute of Organic Chemistry and Biochemistry of the …, priority 1993, dated 1995).

In brackets after ≈: the same amount, converted by molar mass. Where a name gives a salt, the structure may show the parent alone. Read-outs that look alike come from different tables or passages of the source.

Assay [1] concerns herpes simples virus-2. As to the kind of experiment: survival of mice inoculated with herpes simplex virus-2. The assay is classed as in vivo. As to the method: A preferred example of one of these compounds, known as (S)-HPMPA (Formula V) was disclosed by DeClercq, et al., in Nature, 323: 464-467 (1986) and earlier by Holy, et al, Nucleic Acids Research, Symposium Series No. 14, pp. 277-278 (1984). Phosphonate compounds which are HPMPA analogs are described in South African Patent 1987/8607. […] In a 21 day protocol 30% of a group of animals treated i.p. with 50 mg/kg/day of (S)-HPMPA survived. [drawing 5]

Assay [2] has as its system MuLV. As to the kind of experiment: UV-XC plaque assay, MuLV (SC-1 cells). The settings on record: for IC50: Murine leukemia virus. It is filed as cell-based, murine leukemia virus. How it is done: The compounds were evaluated for antiviral activity against murine leukemia virus (MuLV) strains using the UV-XC plaque assay (Rowe, et al., Virology, 42: 1136, 1970).
The MuLV strains were grown in feral mouse cells (SC-1) and used for antiviral tests using the UV-XC plaque assay. Briefly, SC-1 cells are grown as monolayers in 4-well tissue culture plates and inoculated with approximately 50-100 plaque forming units of MuLV in 0.5 ml of 5% EMEM containing 20 μg/ml DEAE/Dextran. After 1 hour adsorption, the inoculum is removed and 5 ml of 5% EMEM containing three-fold dilutions of the appropriate drug are added. Five days later, the cultures are UV-irradiated with an ultraviolet lamp and rat XC sarcoma cells are added to the cultures. Three-four days after UV-irradiation, the cell cultures are stained with Giemsa stain and the plaques are enumerated. Antiviral activity is expressed in terms of the reduction in the mean number of UV-XC plaques counted in the drug treated, virus-infected cultures compared with mean number of plaques counted in untreated, virus-infected control cultures.
(§1) The antiviral potency of the drug is determined by ID50, the drug concentration necessary to reduce the number of plaques by 50% of those in the virus control cultures.

Assay [3] deals with HCMV. As to the kind of experiment: plaque reduction assay, HCMV strain AD169 (MRC-5 cells). The assay is classed as cell-based, Human cytomegalovirus (strain AD169). The settings on record: for IC50: read-out: ID50 HCMV. As to the method: (§2) The compounds are tested for activity against the herpes simplex stains using a stock solution of each compound freshly prepared. Appropriate dilution of each compound are made in 10% EMEM before usage. The antiviral efficacy of each compound is determined using the plaque reduction assay described above. Briefly, tissue culture 24-well plates, with approximately 50 plaque forming units of HSV per 0.1 ml, and the virus absorbed for 1 hour, with intermittent shaking. After removal of the inoculum, 1 ml of 10% EMEM containing two-fold dilutions of the appropriate drug are added in triplicates. Triplicate wells/plate receives no drug and are used as a virus control. After a 48-hour incubation period, at 37° C. in a 5% CO2 atmosphere, the overlay medium is removed, the cells are stained as described above, and plaques are counted. The counts of triplicate wells are averaged, and the number of plaques in the presence of each drug dilution are calculated.
Human cytomegalovirus (HCMV) (strain AD169) was grown and titered at 37° C. in human embryonic lung (diploid) cells, MRC-5. The activity of compounds against HCMV was determined by using the procedure for the plaque reduction assay described above.
as §1

Assay [4] has as its system HSV-2. Nature of the assay: plaque reduction assay, HSV-2 (vero cells). The assay is classed as cell-based, herpes simplex virus II. The note with it: for IC50: 48 h. As to the method:
(§3) Herpes simplex virus (HSV) strains were grown and titered at 37° C. in vero cells (African Green Monkey Kidney cells) and used for virus work before the tenth passage.
(§4) Cells were grown and maintained in Earle's Minimum Essential Medium (EMEM), Gibco Laboratories, supplemented with 0.75% sodium bicarbonate, 2 mM 1-glutamine, Pen-strep. and 5-10% fetal calf serum.
(§5) The titer of HSV strains is determined by a plaque titration method (Roizman and Roane, Virology, 115: 75-79, 1961). Tissue culture 24-well petri dishes are seeded with cells and used for assays when approximately 75% monolayer. Volumes (0.1 ml) of logarithmic dilutions of the virus strain are inoculated onto each of triplicate wells, and absorbed for one hour with intermittent shaking. The inoculum thereafter is removed, and 1 ml of 5-10% EMEM containing 0.3% human immune serum globulin is added. After a 48 hour incubation period at 37° C. in a 5% CO2 atmosphere, the overlay medium is removed and the cell sheets stained with Giemsa stain. The number of plaques is counted, the triplicate is averaged, and the number of plaque-forming units per ml is calculated.
as §2, §1

Assay [5] relates to HSV-1. As to the kind of experiment: plaque reduction assay, HSV-1 (vero cells). It is filed as cell-based, herpes simplex virus I. The note with it: for IC50: 48 h, read-out: ID50 HSV-1. As to the method: as §3, §4, §5
as §2, with “calculated. […]” for “calculated.”

[6] abbreviates: SC1, Table 2, UV-XC plaque assay, SC-1 cells, read-out: ID50 MULV.
Where [7] appears, read: Human alphaherpesvirus 2, Table 2, drug concentration reducing plaques by 50%, vero cells, read-out: ID50 HSV-2.
[8] abbreviates: Human betaherpesvirus 5, MRC5, 48 h, Table 2, strain AD169, MRC-5 cells.

For `Nc1ncnc2c1ncn2C[C@@H](CO)OCP(=O)(O)O` [(S)-HPMPA], the animals survived in assay [1] (HSV-2, i.p., 50 mg/kg/day, 21 day protocol) is recorded as 30%. In addition, the “activity in mice inoculated with herpes simplex virus-2 (in words)” value in assay [1] (HSV-2, in applicant's hands) was “only slightly active”.
As to `Nc1nc2c(ncn2COCCO)c(=O)[nH]1` [ACV, acyclovir, reference compound], the IC50 was over 100 µg/mL in assay [2] (setting [6]); 40 µg/mL (≈ 178 µM) in assay [3] (Human betaherpesvirus 5, MRC5, 48 h, Table 1, strain AD169, MRC-5 cells); 0.7 µg/mL (≈ 3.11 µM) in assay [4] (Human alphaherpesvirus 2, Table 1, drug concentration reducing plaques by 50%, vero cells, read-out: ID50 HSV2); 0.35 µg/mL (≈ 1.55 µM) in assay [4] (setting [7]); 0.6 µg/mL (≈ 2.66 µM) in assay [5] (Human alphaherpesvirus 1, Table 1, drug concentration reducing plaques by 50%, vero cells).
`N.Nc1ncnc2c1ncn2OCOCP(=O)(O)O` [Compound 4, 9-[(Phosphonomethoxy)methoxy]adenine ammonium salt]: the “activity against MuLV (in words)” value in assay [2] is listed as “good activity”. For the same compound, the IC50 in assay [2] (SC-1, read-out: ID50 against MuLV) was 1.5 µg/mL; in assay [4] (Human alphaherpesvirus 2, Vero, read-out: ID50 against HSV-2) it was over 100 µg/mL. Besides, the “HSV-2 activity (in words)” value in assay [4] is listed as “little activity”.
As for `N.Nc1nc2c(ncn2OCOCP(=O)(O)O)c(=O)[nH]1` [Compound 14, 9-[(Phosphonomethoxy)methoxy]guanine ammonium salt], the IC50 is 0.2 µg/mL in assay [3] (Human betaherpesvirus 5, AD169, MRC5, 48 h); 1.3 µg/mL in assay [4] (Human alphaherpesvirus 2, Vero, read-out: ID50 HSV2); 2.2 µg/mL in assay [5] (Human alphaherpesvirus 1, Vero). Moreover, in assay [4], the “HSV-2 activity (in words)” value is reported as “comparable to acyclovir (ACV)”. Also, the “HSV-1 activity (in words)” value in assay [5] (compared with ACV) is reported as “comparable to acyclovir (ACV)”.
Turning to `Nc1ncnc2c1ncn2OC(CO)OCP(=O)(O)O` (centres unmarked) [Compound 21, ammonium salt], the results for the IC50 in assay [2] (setting [6]), in assay [3] (setting [8]) and in assay [4] (setting [7]) were 1.5 µg/mL, 1 µg/mL and 2.6 µg/mL, respectively. Also, the “HCMV activity (in words)” value in assay [3] (compared with DHPG) is reported as “comparable to DHPG”.
Consider `Nc1nc2c(ncn2COC(CO)CO)c(=O)[nH]1` [DHPG, reference compound], for which the values for the IC50 in assay [2] (setting [6]), in assay [3] (setting [8]) and in assay [4] (setting [7]) were over 100 µg/mL, 0.4 µg/mL (≈ 1.57 µM) and 0.2 µg/mL (≈ 0.784 µM), respectively.
